Results published in US9969710B2, “Heteroaryl compounds as IRAK inhibitors and uses thereof” (Merck Patent GmbH, priority 2015, dated 2018).

Tests used:
IRAK4 = target: T1, IRAK4 (Homo sapiens, UniProt Q9NWZ3); experiment: IRAK4 enzymatic assay (ADP-Glo luminescence); type: biochemical; conditions: human recombinant His-TEV-IRAK4 (1-460), STK1-biotin peptide substrate
T1 construct: His-TEV-IRAK4 (1-460); His (N); TEV cleavage site (N)
T1 sequence (Q9NWZ3 1-460): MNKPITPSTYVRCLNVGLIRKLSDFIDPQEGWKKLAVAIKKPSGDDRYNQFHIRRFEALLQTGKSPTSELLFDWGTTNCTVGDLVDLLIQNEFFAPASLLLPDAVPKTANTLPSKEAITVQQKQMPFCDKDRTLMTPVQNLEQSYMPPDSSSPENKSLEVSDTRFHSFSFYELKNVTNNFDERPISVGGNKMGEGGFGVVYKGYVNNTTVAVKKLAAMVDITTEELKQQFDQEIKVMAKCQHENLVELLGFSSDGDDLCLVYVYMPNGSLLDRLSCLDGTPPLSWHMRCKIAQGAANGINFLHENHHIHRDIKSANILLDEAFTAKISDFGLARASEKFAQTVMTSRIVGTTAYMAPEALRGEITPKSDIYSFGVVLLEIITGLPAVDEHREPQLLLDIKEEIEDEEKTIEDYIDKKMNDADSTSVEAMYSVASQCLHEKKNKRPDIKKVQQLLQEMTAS
Method: IRAK4 is a human purified recombinant enzyme (His-TEV-IRAK4 (1-460)).
In this assay, IRAK4 hydrolyses ATP, autophosphorylates and phosphorylates a Serine/Threonine generic peptidic substrate (STK: 61ST1BLC from CisBio International). Measurement of IRAK-4 inhibition is performed in 384-well format based on a luminescence assay (ADP-Glo™ Kinase Assay from Promega). Purified human recombinant IRAK4 ([…]) and serial diluted compounds in DMSO (range of concentration from 10 μM to 0.5 nM) or controls (1% DMSO) are incubated for 15 minutes at RT in assay buffer containing 50 mM Hepes pH 7.0, Fatty acid-free BSA 0.1%, Dithiothreitol (DTT) 2 mM, MgCl2 10 mM, EGTA 0.5 mM, Triton X-100 0.01%, MnCl2 5 mM. The kinase reaction is then initiated by the addition of ATP ([…]) and the peptidic substrate STK1-biotin peptide (300 nM). After 2 hours of incubation at RT, the reaction is stopped and the unconsumed ATP depleted by the addition of ADP-Glo™ Reagent according to supplier instructions. After 40 minutes of incubation at RT, the Kinase Detection Reagent is then added to the assay plate according to supplier instructions. After 20 minutes of incubation at RT, the luminescence signal is measured with a plate-reading luminometer (PerkinElmer Envision or equivalent reader).

[1] = test system: TLR7 induced IL-6 secretion in human mononuclear cells (PBMC's); experiment: TLR7 induced IL-6 in human PBMC's; type: cell-based; conditions: TLR7 specific ligand 2 uM overnight, IL-6 AlphaLISA
Method: TLR7 Induced IL-6 in Human PBMC's
Human PBMC assay was used as one of the functional assaya to monitor the activity of IRAK1 and IRAK4 small molecule inhibitors on TLR7 induced IL-6 secretion in human mononuclear cells (PBMC's). Human PBMCs were prepared from buffy coats (whole blood enriched with leukocytes and platelets) obtained from healthy volunteers used either fresh or frozen are plated in assay media (RPMI+2% P/S/L-glu+10% HI-FBS) and pre-treated with compounds in DMSO/media (range of concentrations from 25 uM to 0.4 nM) or controls (0.25% DMSO) for 30 minutes at 37° C. in assay media. Following pre-treatment with IRAK1 and IRAK4 inhibitors, PBMC's were stimulated with TLR7 specific ligand (2 uM) overnight (16-18 hrs) at 37° C. After incubation supernatant was transferred to 384 well PE AlphaPlate-384 (6005350) and IL-6 is quantified using Perkin Elmer IL-6 Alpha LISA kit (AL223C). Plates were read on an Envision® plate reader with Alpha Technology®.

IRAK1 = target: T2, IRAK1 (Homo sapiens, UniProt P51617); experiment: IRAK1 enzymatic assay (ADP-Glo luminescence); type: biochemical; conditions: human recombinant His-TEV-IRAK1 (194-712), ATP 1 μM; read-out: IRAK 1 IC50
T2 construct: His-TEV-IRAK1 (194-712); His (N); TEV cleavage site (N)
Method: IRAK1 is a human purified recombinant enzyme (His-TEV-IRAK1 (194-712))
In this assay, IRAK1 hydrolyses ATP and autophosphorylates. Measurement of IRAK-1 inhibition is performed in 384-well format based on luminescence assay (ADP-Glo™ Kinase Assay from Promega). Purified human recombinant IRAK1 ([…]) and serial diluted compounds in DMSO (range of concentration from 10 μM to 0.5 nM) or controls (1% DMSO) are incubated for 15 minutes at RT in assay buffer containing 50 mM Hepes pH 7.0, Fatty acid-free BSA 0.1%, Dithiothreitol (DTT) 2 mM, MgCl2 10 mM, EGTA 0.5 mM, Triton X-100 0.01%. The kinase reaction is then initiated by the addition of ATP at a concentration of 1 μM. After 2 hours of incubation at RT, the reaction is stopped and the unconsumed ATP depleted by the addition of ADP-Glo™ Reagent according to supplier instructions. After 40 minutes of incubation at RT, the Kinase Detection Reagent is then added to the assay plate according to supplier instructions. After 20 minutes of incubation at RT, the luminescence signal is measured with a luminometer (PerkinElmer Envision or equivalent reader).

T2 sequence (P51617 194-712): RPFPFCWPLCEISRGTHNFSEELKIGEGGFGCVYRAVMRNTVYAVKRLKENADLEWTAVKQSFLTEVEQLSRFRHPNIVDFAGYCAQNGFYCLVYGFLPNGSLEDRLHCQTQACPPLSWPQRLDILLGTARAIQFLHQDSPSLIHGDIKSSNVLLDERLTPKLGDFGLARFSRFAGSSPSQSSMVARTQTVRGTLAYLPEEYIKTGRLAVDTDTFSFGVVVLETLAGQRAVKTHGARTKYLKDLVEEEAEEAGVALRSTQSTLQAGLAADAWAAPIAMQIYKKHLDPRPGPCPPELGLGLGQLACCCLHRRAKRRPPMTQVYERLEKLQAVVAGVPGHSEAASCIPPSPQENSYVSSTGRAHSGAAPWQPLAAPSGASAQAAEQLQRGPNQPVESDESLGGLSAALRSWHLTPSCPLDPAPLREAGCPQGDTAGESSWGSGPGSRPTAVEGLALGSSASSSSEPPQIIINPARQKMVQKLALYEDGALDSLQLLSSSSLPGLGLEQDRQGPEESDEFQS

IC50 (IRAK4)	melting point	IC50 (IRAK1)	SMILES	IC50 ([1]; Homo sapiens, PBMC)	IC50 [1]
≤ 100 nM	118 to 120 °C	100 to 1000 nM	CN1CCOC(c2ccc3c(c2)nc(NC(=O)c2cccc(C(F)F)c2)n3CC(C)(F)CO)C1=O (centres unmarked) [Compound 26, 3-Difluoromethyl-N-[1-(2-fluoro-3-hydroxy-2-methyl-propyl)-5-(4-methyl-3-oxo-morpholin-2-yl)-1H-benzoimidazol-2-yl]-benzamide]	100 to 1000 nM	–
≤ 100 nM	72 to 74 °C	1000 to 10000 nM	CN1CCC(C)(c2ccc3c(c2)nc(NC(=O)c2cccc(C(F)(F)F)c2)n3CCCO)C1=O (centres unmarked) [Compound 29, N-[5-(1,3-Dimethyl-2-oxo-pyrrolidin-3-yl)-1-(3-hydroxy-propyl)-1H-benzoimidazol-2-yl]-3-trifluoromethyl-benzamide]	–	–
≤ 100 nM	78 to 81 °C	–	CN1CCC(C)(c2ccc3c(c2)nc(NC(=O)c2cccc(C(F)F)c2)n3CCCO)C1=O (centres unmarked) [Compound 30, 3-Difluoromethyl-N-[5-(1,3-dimethyl-2-oxo-pyrrolidin-3-yl)-1-(3-hydroxy-propyl)-1H-benzoimidazol-2-yl]-benzamide]	1000 to 10000 nM	–
≤ 100 nM	121 to 124 °C	100 to 1000 nM	CN1CCOC(c2ccc3c(c2)nc(NC(=O)c2cccc(C(F)(F)F)c2)n3CC(C)(F)CO)C1=O (centres unmarked) [Compound 28, N-[1-(2-Fluoro-3-hydroxy-2-methyl-propyl)-5-(4-methyl-3-oxo-morpholin-2-yl)-1H-benzoimidazol-2-yl]-3-trifluoromethyl-benzamide]	≤ 100 nM	–
≤ 100 nM	–	100 to 1000 nM	CC(=O)N1CCC(c2ccc3c(c2)[nH]/c(=N\C(=O)c2cccc(C(F)(F)F)c2)n3CCCO)C1 (centres unmarked) [Compound 12, (E)-N-(5-(1-acetylpyrrolidin-3-yl)-1-(3-hydroxypropyl)-1H-benzo[d]imidazol-2(3H)-ylidene)-3-(trifluoromethyl)benzamide]	100 to 1000 nM	–
≤ 100 nM	–	100 to 1000 nM	CN1C(=O)CCC1(C)c1ccc2c(c1)nc(NC(=O)c1cccc(C(F)(F)F)c1)n2CCCO (single isomer, unassigned) [Compound 32b]	–	1000 to 10000 nM
≤ 100 nM	–	100 to 1000 nM	Cn1cncc(-c2ccc3c(c2)[nH]/c(=N\C(=O)c2cccc(C(F)(F)F)c2)n3CCCO)c1=O [Compound 5, (E)-N-(1-(3-hydroxypropyl)-5-(1-methyl-6-oxo-1,6-dihydropyrimidin-5-yl)-1H-benzo[d]imidazol-2(3H)-ylidene)-3-(trifluoromethyl)benzamide]	100 to 1000 nM	–
≤ 100 nM	–	1000 to 10000 nM	CN1CCC[C@H](c2ccc3c(c2)[nH]/c(=N\C(=O)c2cccc(C(F)F)c2)n3C[C@@](C)(F)CO)C1=O [Compound 3a, 3-(difluoromethyl)-N-[(2E)-1-[(2R)-2-fluoro-3-hydroxy-2-methylpropyl]-5-[(3R)-1-methyl-2-oxopiperidin-3-yl]-2,3-dihydro-1H-1,3-benzodiazol-2-ylidene]benzamide]	100 to 1000 nM	–
≤ 100 nM	–	≤ 100 nM	CN1CCC[C@@H](c2ccc3c(c2)[nH]/c(=N\C(=O)c2cccc(C(F)(F)F)c2)n3CCCO)C1=O [Compound 1a, (S,E)-N-(1-(3-hydroxypropyl)-5-(1-methyl-2-oxopiperidin-3-yl)-1H-benzo[d]imidazol-2(3H)-ylidene)-3-(trifluoromethyl)benzamide]	≤ 100 nM	–
≤ 100 nM	–	100 to 1000 nM	CN1CC[C@@](C)(c2ccc3c(c2)nc(NC(=O)c2cccc(C(F)F)c2)n3CCCO)C1=O [Compound 30b, N-{5-[(3S)-1,3-dimethyl-2-oxopyrrolidin-3-yl]-1-(3-hydroxypropyl)-1H-1,3-benzodiazol-2-yl}-3-(diifluoromethyl)benzamide]	1000 to 10000 nM	–
≤ 100 nM	–	100 to 1000 nM	CN1CC(c2ccc3c(c2)nc(NC(=O)c2cccc(C(F)F)c2)n3CCCO)C(C)(C)C1=O (single isomer, unassigned) [Compound 27b]	–	100 to 1000 nM
≤ 100 nM	–	100 to 1000 nM	O=C(/N=c1\[nH]c2cc(C3CCCN(CC4CC4)C3=O)ccc2n1CCCO)c1cccc(C(F)(F)F)c1 (centres unmarked) [Compound 7, (E)-N-(5-(1-(cyclopropylmethyl)-2-oxopiperidin-3-yl)-1-(3-hydroxypropyl)-1H-benzo[d]imidazol-2(3H)-ylidene)-3-(trifluoromethyl)benzamide]	100 to 1000 nM	–
≤ 100 nM	–	≤ 100 nM	CC(=O)N1CCCC(c2ccc3c(c2)[nH]/c(=N\C(=O)c2cccc(C(F)(F)F)c2)n3CCCO)C1 (centres unmarked) [Compound 14, (E)-N-(5-(1-acetylpiperidin-3-yl)-1-(3-hydroxypropyl)-1H-benzo[d]imidazol-2(3H)-ylidene)-3-(trifluoromethyl)benzamide]	≤ 100 nM	–
≤ 100 nM	–	100 to 1000 nM	CN1CCCC(c2ccc3c(c2)[nH]/c(=N\C(=O)c2cccc(C(F)(F)F)c2)n3CCC(O)CO)C1=O (single isomer, unassigned) [Compound 22c]	–	1000 to 10000 nM
≤ 100 nM	–	100 to 1000 nM	CN1CCC(c2ccc3c(c2)nc(NC(=O)c2cccc(C(F)(F)F)c2)n3CCCO)C1=O (single isomer, unassigned) [Compound 23a]	≤ 100 nM	–
≤ 100 nM	–	≤ 100 nM	CN1CCC[C@@H](c2ccc3c(c2)[nH]/c(=N\C(=O)c2cccc(C(F)F)c2)n3C[C@@](C)(F)CO)C1=O [Compound 3d, 3-(difluoromethyl)-N-[(2E)-1-[(2R)-2-fluoro-3-hydroxy-2-methylpropyl]-5-[(3S)-1-methyl-2-oxopiperidin-3-yl]-2,3-dihydro-1H-1,3-benzodiazol-2-ylidene]benzamide]	≤ 100 nM	–
≤ 100 nM	–	100 to 1000 nM	CN1CCC(c2ccc3c(c2)[nH]/c(=N\C(=O)c2cccc(C(F)(F)F)c2)n3CC(O)CO)C1=O (single isomer, unassigned) [Compound 20a]	–	100 to 1000 nM
≤ 100 nM	–	≤ 100 nM	CN1CCC(c2ccc3c(c2)[nH]/c(=N\C(=O)c2cccc(C(F)(F)F)c2)n3CCC(O)CO)C1=O (single isomer, unassigned) [Compound 21d]	–	100 to 1000 nM
